Earlier results on four substances are cited in patent publication EP0417819A1, “Psycho-pharmacological peptides” (AKZO N.V., priority 1989, dated 1991).

Entries after “also recorded” stand apart in the source; their conditions may differ.

This series relates to extinction of the (active) avoidance behaviour of rats. As to conditions: pole climbing test, state of the art, result in words.
As to “y-endorphin (YGGFMTSEKSQTPLVTL; Beta-endorphin; UniProt P01189 237-253, looked up, fragment) [β-endorphin (1-17)]”, the “extinction of the (active) avoidance behaviour” value (from here on “extinction”) is reported as “accelerate the extinction of the avoidance behaviour”. Consider “β-endorphin (YGGFMTSEKSQTPLVTLFKNAIIKNAYKKGE; Beta-endorphin; UniProt P01189 237-267, looked up) [(59-89) fragments of β-LPH]”, for which the “extinction” value is listed as “delays the extinction”. As to a-endorphin, the “extinction” value was “inhibit the extinction of the avoidance behaviour; also recorded: retarded”. Take “met-enkephalin (YGGFM; Met-enkephalin; UniProt P01189 237-241, looked up) [smaller peptide fragment derived from β-endorphin]”: the “extinction” value was “inhibit the extinction of the avoidance behaviour”.
